{
  "source": "patent US8945639B2",
  "about": "“Treatment of inflammatory bowel disease” (Provexis (IBD) Limited, priority 2003, dated 2015)",
  "molecules": {"B1": {"name": "fetuin: fetuin, glycoconjugate tested at 50 μg/ml (protein, UniProt P12763 19-359, looked up)", "Alpha-2-HS-glycoprotein": "IPLDPVAGYKEPACDDPDTEQAALAAVDYINKHLPRGYKHTLNQIDSVKVWPRRPTGEVYDIEIDTLETTCHVLDPTPLANCSVRQQTQHAVEGDCDIHVLKQDGQFSVLFTKCDSSPDSAEDVRKLCPDCPLLAPLNDSRVVHAVEVALATFNAESNGSYLQLVEISRAQFVPLPVSVSVEFAVAATDCIAKEVVDPTKCNLLAEKQYGFCKGSVIQKALGGEDVRVTCTLFQTQPVIPQPQPDGAEAEAPSAVPDAAGPTPSAAGPPVASVVVGPSVVAVPLPLHRAHYDLRHTFSGVASVESSSGEAFHVGKTPIVGQPSIPGGPVRLCPGRIRYFKI"}, "B2": {"name": "asialofetuin: asialofetuin, glycoconjugate tested at 50 μg/ml (protein, UniProt P12763 19-359, looked up)", "Alpha-2-HS-glycoprotein": "B1 Alpha-2-HS-glycoprotein", "modifications": "desialylated", "notes": "asialofetuin, glycoconjugate tested at 50 μg/ml"}},
  "data": [
    {"test_system": "agglutinating mucosally-associated E. coli (haemagglutination of human red blood cells)", "experiment": "Haemagglutination assays with different oligosaccharides/fibres (Example 1)", "assay_type": "cell-based", "settings": "agglutinating E. coli from IBD subjects, 'in all cases', mannose, fucose, galactose 0.4M, fetuin, asialofetuin 50 μg/ml", "protocol": "Blood was taken from a healthy human volunteer and placed into a heparinised container. The blood was washed three times in PBS by centrifugation at 1000 rpm for 5 minutes and by resuspending the pellet in fresh PBS. After the third wash, the pellet was resuspended in PBS so as to give a 1% red blood cell solution. Bacteria identified as E. coli, and 5 strains of CD-ileal associated E. coli were grown so as to obtain maximum fimbrial expression (see above). Bacteria were suspended in saline to give an OD equal to MacFarland standard 5. Doubling dilutions of bacterial suspension were performed in 96 well U-bottomed haemagglutination plates (Dynex technologies) to a final volume of 100 μl per well. 50 μl of 1% rbcs was added to each well. The plate was tapped gently to mix the contents of the wells and was left at room temperature for approximately 2 hrs.\nFurther characterisation of bacterial haemagglutination was carried out using a panel of oligosaccharides/fibers. The structures tested were: mannose (0.4M), fucose (0.4M), galactose (0.4M), fetuin (50 μg/ml), asialofetuin (50 μg/ml), bovine submaxillary mucin (BSM), hydrolysed BSM, ovine submaxilliary mucin (OSM), lactose, lactulose, siayl Tn, GalGalNAc, N-Glycolyneuraminic acid, N-acetylneuraminic acid, 3′-n-acetylneuraminyl-lactose, 6′-n-acetylneuraminyl-lactose, melibiose, plantain, stachyose, milk derived galacto-oligosaccharide, raffinose, pectin, polygalacturonic acid, and paralacto-n-hexaose.\nSoluble fiber (prepared according to 1.1.12.2) and other carbohydrates were tested for their ability to modulate agglutination, attachment and invasion of cells from subjects with IBD.", "values": [
      {"molecule": "CC(=O)N[C@H]1[C@H]([C@H](O)[C@H](O)CO)OC(O)(C(=O)O)C[C@@H]1O", "note": "(stereo partly shown) [N-acetylneuraminic acid]", "inhibition of agglutination": "non-inhibitory"},
      {"molecule": "OC[C@H]1O[C@H](OC[C@H]2O[C@H](O[C@]3(CO)O[C@H](CO)[C@@H](O)[C@@H]3O)[C@H](O)[C@@H](O)[C@@H]2O)[C@H](O)[C@@H](O)[C@H]1O", "note": "[raffinose]", "inhibition of agglutination": "non-inhibitory"},
      {"molecule": "CC(=O)NC1C(O)CC(OCC2OC(OC3C(CO)OC(O)C(O)C3O)C(O)C(O)C2O)(C(=O)O)OC1C(O)C(O)CO", "note": "(stereo not shown) [6′-n-acetylneuraminyl-lactose]", "inhibition of agglutination": "non-inhibitory"},
      {"molecule": "polygalacturonic acid", "inhibition of agglutination": "non-inhibitory"},
      {"molecule": "O=C(CO)N[C@H]1[C@H]([C@H](O)[C@H](O)CO)OC(O)(C(=O)O)C[C@@H]1O", "note": "(stereo partly shown) [N-glycolyneuraminic acid]", "inhibition of agglutination": "non-inhibitory"},
      {"molecule": "paralacto-n-hexaose", "inhibition of agglutination": "non-inhibitory"},
      {"molecule": "siaylosyl-Tn", "inhibition of agglutination": "non-inhibitory"},
      {"molecule": "bovine submaxillary mucin", "inhibition of agglutination": "inhibited"},
      {"molecule": "O=C[C@H](O)[C@@H](O)[C@@H](O)[C@H](O)CO", "note": "[galactose]", "inhibition of agglutination": "non-inhibitory"},
      {"molecule": "OC[C@H]1O[C@@H](O[C@H]2[C@H](O)[C@@H](O)C(O)O[C@@H]2CO)[C@H](O)[C@@H](O)[C@H]1O", "note": "(stereo partly shown) [lactose]", "inhibition of agglutination": "non-inhibitory"},
      {"molecule": "CC(=O)N[C@H]1[C@H]([C@H](O)[C@H](O)CO)O[C@@](O[C@H]2[C@@H](O)[C@@H](CO)O[C@@H](O[C@H]3[C@H](O)[C@@H](O)C(O)O[C@@H]3CO)[C@@H]2O)(C(=O)O)C[C@@H]1O", "note": "(stereo partly shown) [3′-n-acetylneuraminyl-lactose]", "inhibition of agglutination": "non-inhibitory"},
      {"molecule": "OC[C@H]1O[C@@H](O[C@@H]2[C@@H](CO)OC(O)(CO)[C@H]2O)[C@H](O)[C@@H](O)[C@H]1O", "note": "(mixture of isomers) [lactulose]", "inhibition of agglutination": "non-inhibitory"},
      {"molecule": "CC(=O)N[C@H]1C(O)O[C@H](CO)[C@H](O)[C@@H]1O[C@@H]1O[C@H](CO)[C@H](O)[C@H](O)[C@H]1O", "note": "(stereo partly shown) [Galβ1-3GalNAc]", "inhibition of agglutination": "non-inhibitory"},
      {"molecule": "pectin", "inhibition of agglutination": "non-inhibitory"},
      {"molecule": "OC[C@H]1O[C@H](OCC2O[C@@H](O)[C@H](O)[C@@H](O)[C@@H]2O)[C@H](O)[C@@H](O)[C@H]1O", "note": "(stereo partly shown) [melibiose]", "inhibition of agglutination": "non-inhibitory"},
      {"molecule": "OC[C@H]1O[C@H](OC[C@H]2O[C@H](OC[C@H]3O[C@H](O[C@]4(CO)O[C@H](CO)[C@@H](O)[C@@H]4O)[C@H](O)[C@@H](O)[C@@H]3O)[C@H](O)[C@@H](O)[C@H]2O)[C@H](O)[C@@H](O)[C@H]1O", "note": "[stachyose]", "inhibition of agglutination": "non-inhibitory"},
      {"molecule": "C[C@H](O)[C@@H](O)[C@@H](O)[C@H](O)C=O", "note": "[fucose]", "inhibition of agglutination": "non-inhibitory"},
      {"molecule": "B1", "inhibition of agglutination": "non-inhibitory"},
      {"molecule": "B2", "inhibition of agglutination": "non-inhibitory"}
    ]}
  ]
}
